Test results published in ChEMBL document CHEMBL1201862, “PubChem BioAssay data set” (2004).
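Cultured in 96-well plates, cells were exposed to test compound for 48 hours across five concentrations. GI50: concentration for 50% inhibition of growth.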 Calls of active or inactive are those of the source. Rule as the data show it: active = GI50 up to about 1.1 µM and inactive = higher.

What was measured:
Test in all cases: NCI anticancer screen, dose series, 48 h
[1] = system: 786-0
[2] = system: A498
[3] = system: A549
[4] = system: ACHN
[5] = system: BT-549
[6] = system: CAKI-1
[7] = system: CCRF-CEM
[8] = system: COLO 205
[9] = system: DU-145
[10] = system: EKVX
[11] = system: HCC 2998
[12] = system: HCT-116
[13] = system: HCT-15
[14] = system: HL-60
[15] = system: HOP-62
[16] = system: HOP-92
[17] = system: HT-29
[18] = system: Hs-578T
[19] = system: IGROV-1
[20] = system: K562
[21] = system: KM12
[22] = system: LOX IMVI
[23] = system: M14
[24] = system: MCF7
[25] = system: MDA-MB-231
[26] = system: MDA-MB-435
[27] = system: MDA-N
[28] = system: MOLT-4
[29] = system: Malme-3M
[30] = system: NCI-H226
[31] = system: NCI-H23
[32] = system: NCI-H460
[33] = system: NCI-H522
[34] = system: NCI/ADR-RES
[35] = system: OVCAR-3
[36] = system: OVCAR-4
[37] = system: OVCAR-5
[38] = system: OVCAR-8
[39] = system: PC-3
[40] = system: RXF 393
[41] = system: SF-268
[42] = system: SF-295
[43] = system: SK-MEL-28
[44] = system: SK-MEL-5
[45] = system: SK-OV-3
[46] = system: SN12C
[47] = system: SNB-19
[48] = system: SNB-75
[49] = system: SR
[50] = system: SW-620
[51] = system: T47D
[52] = system: TK-10
[53] = system: U-251
[54] = system: UACC-257
[55] = system: UACC-62
[56] = system: UO-31
[57] = system: RPMI-8226
[58] = system: SF-539
[59] = system: SK-MEL-2

CC(=O)O[C@H]1CC[C@@]2(C)C(=CC[C@@H]3[C@@H]2CC[C@]2(C)c4c(C)n[nH]c4C[C@@H]32)C1
GI50 [1]: 17.4 µM (inactive)
GI50 [2]: 20.3 µM (inactive)
GI50 [3]: 14.2 µM (inactive)
GI50 [4]: 17.9 µM (inactive)
GI50 [5]: 15.2 µM (inactive)
GI50 [6]: 16.8 µM (inactive)
GI50 [7]: 4.97 µM (inactive)
GI50 [8]: 14.7 µM (inactive)
GI50 [9]: 14.2 µM (inactive)
GI50 [10]: 17.9 µM (inactive)
GI50 [11]: 18.5 µM (inactive)
GI50 [12]: 11.2 µM (inactive)
GI50 [13]: 15 µM
GI50 [14]: 10.1 µM (inactive)
GI50 [15]: 21.1 µM (inactive)
GI50 [16]: 21 µM (inactive)
GI50 [17]: 10.3 µM (inactive)
GI50 [18]: 17.6 µM (inactive)
GI50 [19]: 20.8 µM (inactive)
GI50 [20]: 2.54 µM (inactive)
GI50 [21]: 15.3 µM (inactive)
GI50 [22]: 31.5 µM (inactive)
GI50 [23]: 16 µM (inactive)
GI50 [24]: 11.5 µM (inactive)
GI50 [25]: 21.1 µM (inactive)
GI50 [26]: 16 µM (inactive)
GI50 [27]: 20.1 µM (inactive)
GI50 [28]: 11.7 µM (inactive)
GI50 [29]: 3.75 µM (inactive)
GI50 [30]: 16.5 µM (inactive)
GI50 [31]: 14.1 µM (inactive)
GI50 [32]: 15.6 µM (inactive)
GI50 [33]: 6.92 µM (inactive)
GI50 [34]: 26.1 µM (inactive)
GI50 [35]: 12.2 µM (inactive)
GI50 [36]: 15.7 µM (inactive)
GI50 [37]: 14.9 µM (inactive)
GI50 [38]: 31 µM (inactive)
GI50 [39]: 17.3 µM (inactive)
GI50 [40]: 11.4 µM (inactive)
GI50 [41]: 23.4 µM (inactive)
GI50 [42]: 20.4 µM (inactive)
GI50 [43]: 20.7 µM (inactive)
GI50 [44]: 13.4 µM (inactive)
GI50 [45]: 26.9 µM (inactive)
GI50 [46]: 19.4 µM (inactive)
GI50 [47]: 19.5 µM (inactive)
GI50 [48]: 12.2 µM (inactive)
GI50 [49]: 22.3 µM (inactive)
GI50 [50]: 16.9 µM (inactive)
GI50 [51]: 9.53 µM (inactive)
GI50 [52]: 19.2 µM (inactive)
GI50 [53]: 15.3 µM (inactive)
GI50 [54]: 16.7 µM (inactive)
GI50 [55]: 12 µM (inactive)
GI50 [56]: 17.7 µM (inactive)

CCC(C)[C@@H](NC1=C(Cl)C(=O)c2c(O)ccc(O)c2C1=O)C(=O)OC (some centres not stated)
GI50 [1]: 2.43 µM (inactive)
GI50 [3]: 3.89 µM (inactive)
GI50 [4]: 3.91 µM (inactive)
GI50 [5]: 3.43 µM (inactive)
GI50 [6]: 6.46 µM (inactive)
GI50 [7]: 0.579 µM (active)
GI50 [8]: 2.13 µM (inactive)
GI50 [9]: 5.19 µM (inactive)
GI50 [10]: 9.23 µM (inactive)
GI50 [11]: > 10 µM (inactive)
GI50 [12]: 2.4 µM (inactive)
GI50 [13]: 2.94 µM
GI50 [14]: 2 µM (inactive)
GI50 [15]: 3.51 µM (inactive)
GI50 [16]: > 10 µM (inactive)
GI50 [17]: 3.01 µM (inactive)
GI50 [18]: > 10 µM (inactive)
GI50 [19]: 3.95 µM (inactive)
GI50 [20]: 3.59 µM (inactive)
GI50 [21]: 3.92 µM (inactive)
GI50 [22]: 3.21 µM (inactive)
GI50 [23]: 2.31 µM (inactive)
GI50 [24]: 3.61 µM (inactive)
GI50 [25]: 2.52 µM (inactive)
GI50 [26]: 3.55 µM (inactive)
GI50 [27]: 3.56 µM (inactive)
GI50 [28]: 1.47 µM (inactive)
GI50 [29]: 1.8 µM (inactive)
GI50 [30]: 4.14 µM (inactive)
GI50 [31]: 2.07 µM (inactive)
GI50 [32]: 2.64 µM (inactive)
GI50 [33]: 2.67 µM (inactive)
GI50 [34]: 2.52 µM (inactive)
GI50 [35]: 2.79 µM (inactive)
GI50 [36]: 2.84 µM (inactive)
GI50 [37]: 5.12 µM (inactive)
GI50 [38]: 3.15 µM (inactive)
GI50 [39]: 3.86 µM (inactive)
GI50 [57]: 2.28 µM (inactive)
GI50 [41]: 3.7 µM (inactive)
GI50 [42]: 4.92 µM (inactive)
GI50 [58]: 4.08 µM (inactive)
GI50 [59]: 4.2 µM (inactive)
GI50 [44]: 2.02 µM (inactive)
GI50 [45]: 6.68 µM (inactive)
GI50 [46]: 3.66 µM (inactive)
GI50 [47]: > 10 µM (inactive)
GI50 [48]: 7.26 µM (inactive)
GI50 [49]: 1.06 µM (active)
GI50 [50]: 4.46 µM (inactive)
GI50 [51]: > 10 µM (inactive)
GI50 [52]: > 10 µM (inactive)
GI50 [53]: 3.78 µM (inactive)
GI50 [54]: 2.18 µM (inactive)
GI50 [55]: 3.37 µM (inactive)

COc1cc(NP(=O)(Oc2ccccc2)Oc2ccccc2)ccc1Nc1c2ccccc2nc2c1[nH]c1ccccc12
GI50 [1]: 0.278 µM (active)
GI50 [2]: 0.269 µM (active)
GI50 [3]: 0.16 µM (active)
GI50 [4]: 0.221 µM (active)
GI50 [5]: 5.51 µM (inactive)
GI50 [6]: 0.261 µM (active)
GI50 [7]: 0.183 µM (active)
GI50 [8]: 2.81 µM (inactive)
GI50 [9]: 0.286 µM (active)
GI50 [10]: 9.71 µM (inactive)
GI50 [11]: 4.36 µM (inactive)
GI50 [12]: 3.21 µM (inactive)
GI50 [13]: 1.63 µM
GI50 [15]: 0.359 µM (active)
GI50 [16]: 0.933 µM (active)
GI50 [17]: 0.953 µM (active)
GI50 [18]: 17.1 µM (inactive)
GI50 [19]: 0.0923 µM (active)
GI50 [20]: 1.62 µM (inactive)
GI50 [21]: 2.62 µM (inactive)
GI50 [22]: 0.598 µM (active)
GI50 [23]: 0.891 µM (active)
GI50 [24]: 0.092 µM (active)
GI50 [25]: 4.68 µM (inactive)
GI50 [26]: 3.11 µM (inactive)
GI50 [27]: 2.77 µM (inactive)
GI50 [28]: 0.0147 µM (active)
GI50 [29]: 4.46 µM (inactive)
GI50 [31]: 0.585 µM (active)
GI50 [32]: 0.0226 µM (active)
GI50 [33]: 1.6 µM (inactive)
GI50 [34]: 1.65 µM (inactive)
GI50 [35]: 2.08 µM (inactive)
GI50 [36]: 3.22 µM (inactive)
GI50 [37]: 10.5 µM (inactive)
GI50 [38]: 1.23 µM (inactive)
GI50 [39]: 4.41 µM (inactive)
GI50 [40]: 2.46 µM (inactive)
GI50 [41]: 6.52 µM (inactive)
GI50 [42]: 0.344 µM (active)
GI50 [58]: 0.36 µM (active)
GI50 [43]: 16.2 µM (inactive)
GI50 [59]: 7.24 µM (inactive)
GI50 [44]: 1.22 µM (inactive)
GI50 [45]: 1.88 µM (inactive)
GI50 [46]: 0.327 µM (active)
GI50 [47]: 0.755 µM (active)
GI50 [48]: 0.766 µM (active)
GI50 [49]: < 0.0158 µM (active)
GI50 [50]: 1.22 µM (inactive)
GI50 [51]: 0.867 µM (active)
GI50 [52]: 3.01 µM (inactive)
GI50 [53]: 0.524 µM (active)
GI50 [54]: 7.71 µM (inactive)
GI50 [55]: 2.4 µM (inactive)
GI50 [56]: 0.617 µM (active)
